{"source": "patent US20080004320A1", "about": "“Remedy for Glomerular Disease” (Kowa Co., Ltd., priority 2004, published 2008)", "system": "⅚ nephrectomized rats", "experiment": "Effect on ⅚ nephrectomized rat (progressive renal failure model)", "format": "in vivo", "details": "for death due to renal failure, compared with control group (FIG. 1): until week 15 after initiation of drug administration; for glomerulosclerosis score compared with control group (in words) / Glomerulosclerosis (score): week 15 after initiation of drug administration; for Glomerulosclerosis (score): average score of 50 glomeruli per renal tissue piece, male SD rats", "text": "Fifty-one male SD rats (seven weeks old, purchased from Japan SLC, Inc.) were anesthetized with pentobarbital, and the left kidney of each rat was exposed. Under a stereoscopic microscope, two of the left renal artery branches (generally, one renal artery is separated into three branches) were ligated and one central branch was left intact. When a renal artery branch is ligated, a portion controlled by the branch falls into ischemia, and such an ischemic renal portion can be visually detected. One week later, the right kidney was removed. That is to say, ⅚ of the kidneys was removed. Four weeks after surgery, blood was collected from each rat under unanesthetized conditions, and plasma creatinine level (Pcr) was measured. Pcr is a blood parameter indicative of renal function, and an increase in Pcr indicates impairment of renal function. After Pcr measurement, rats with considerably impaired renal function and rats with no impairment of renal function were eliminated, to thereby select 36 rats employed for the test.\nSubsequently, on the basis of the thus-obtained Pcr data, these rats were divided into four groups in such a manner that the value of Pcr was averaged out among each group: control group (i.e., no drug administration group) (N=9); pyridoxamine dihydrochloride administration group (administered in the form of aqueous solution (1.5 g/L)) (N=9); candesartan cilexetil administration group ((1 mg/kg) administered orally once a day) (N=9); and combined administration group (pyridoxamine dihydrochloride administered in the form of aqueous solution (1.5 g/L), and candesartan cilexetil (1 mg/kg) administered orally once a day) (N=9). In addition to these four groups, one normal rat group non-surgical group, was provided.\nPyridoxamine dihydrochloride was dissolved in purified water, and the aqueous solution was available to the rats ad libitum. The daily dose of pyridoxamine dihydrochloride was about 100 mg/kg Candesartan cilexetil was suspended in 0.5% methyl cellulose sodium solution upon use, and the suspension was repeatedly orally administered.\nDrug administration was initiated at week five after surgery (Pcr was about 1.5 mg/dL at the start of drug administration; i.e., renal function had already been impaired).\nAfter initiation of drug administration, the number of surviving rats was recorded every day. Per was measured at week two, week four, week seven, week 11, and week 15 after initiation of drug administration. Urinary total protein excretion was measured at week four, week seven, week 11 and week 15 after initiation of drug administration (each measurement was performed after 18-hour urine accumulation). In addition, at week 15 after initiation of drug administration, systolic blood pressure was measured under unanesthetized conditions by means of a noninvasive blood pressure measuring apparatus.\nAt week 15 after initiation of drug administration, the renal tissue of each rat was observed, and the degree of glomerulosclerosis was evaluated on the basis of the below-described score. […] As used herein, the term “score” refers to the degree of glomerulosclerosis; i.e., the degree of hyperplasia of mesangial matrix in glomeruli. […] Score 0 was assigned to a glomerulus similar to that of rats in the normal rat group; score 1 was assigned to a glomerulus in which the area of mesangial matrix accounts for less than 25%; score 2 was assigned to a glomerulus in which the area of mesangial matrix accounts for 25% or more and less than 50%; score 3 was assigned to a glomerulus in which the area of mesangial matrix accounts for 50% or more and less than […]; and score 4 was assigned to a glomerulus in which the area of mesangial matrix accounts for 75% or more. The average of the thus-obtained scores of the glomeruli was employed for evaluation of glomerulosclerosis.", "note": "Structures can show the parent of a compound that is named as a salt.", "data": [{"compound": "CCOc1nc2cccc(C(=O)OC(C)OC(=O)OC3CCCCC3)c2n1Cc1ccc(-c2ccccc2-c2nnn[nH]2)cc1", "note": "(stereo not drawn) [Candesartan cilexetil, 1-(cyclohexyloxycarbonyloxy)ethyl 2-ethoxy-1-[2′-(1H-tetrazol-5-yl)biphenyl-4-ylmethyl]-1H-benzimidazole-7-carboxylate]", "values": [{"measurement": "death due to renal failure, compared with control group (FIG. 1)", "value": "tendency for suppression of death due to renal failure was observed"}, {"measurement": "glomerulosclerosis score compared with control group (in words)", "value": "reduction in score was observed"}, {"measurement": "Glomerulosclerosis (score)", "value": "1.52 ± 0.45", "unit": "score"}]}, {"compound": "Cc1ncc(CO)c(CN)c1O", "note": "[Pyridoxamine dihydrochloride, 4-(aminomethyl)-5-hydroxy-6-methyl-3-pyridinemethanol]", "values": [{"measurement": "death due to renal failure, compared with control group (FIG. 1)", "value": "tendency for suppression of death due to renal failure was observed"}, {"measurement": "glomerulosclerosis score compared with control group (in words)", "value": "no reduction in score was observed"}, {"measurement": "Glomerulosclerosis (score)", "value": "1.93 ± 0.35", "unit": "score"}]}]}
